Where a chain is given by its changes, count along the chain named.
Columns and labels:
Test in all cases: KINOMEscan kinase binding assay (Eurofins/DiscoveRx), % Ctrl
Conditions in all cases: 1 μM
[1] = tested on: kinases
Summary of the method: (§1)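 Competition binding, 1 h RT: phage-tagged or HEK-293-expressed DNA-tagged kinase + immobilized ligand + compound. Eluate kinase by qPCR. % Ctrl = (test − positive ctrl)/(negative ctrl − positive ctrl) × 100; lower means stronger binding.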

[2] = target: T1, kinases (Homo sapiens, UniProt P36888, D835Y)
T1 construct: purchased Eurofins/DiscoveRx; host or cells: E. coli BL21-derived host (T7 phage display) for most kinases; HEK-293 for the rest
T1 sequence (P36888 27-993 D835Y): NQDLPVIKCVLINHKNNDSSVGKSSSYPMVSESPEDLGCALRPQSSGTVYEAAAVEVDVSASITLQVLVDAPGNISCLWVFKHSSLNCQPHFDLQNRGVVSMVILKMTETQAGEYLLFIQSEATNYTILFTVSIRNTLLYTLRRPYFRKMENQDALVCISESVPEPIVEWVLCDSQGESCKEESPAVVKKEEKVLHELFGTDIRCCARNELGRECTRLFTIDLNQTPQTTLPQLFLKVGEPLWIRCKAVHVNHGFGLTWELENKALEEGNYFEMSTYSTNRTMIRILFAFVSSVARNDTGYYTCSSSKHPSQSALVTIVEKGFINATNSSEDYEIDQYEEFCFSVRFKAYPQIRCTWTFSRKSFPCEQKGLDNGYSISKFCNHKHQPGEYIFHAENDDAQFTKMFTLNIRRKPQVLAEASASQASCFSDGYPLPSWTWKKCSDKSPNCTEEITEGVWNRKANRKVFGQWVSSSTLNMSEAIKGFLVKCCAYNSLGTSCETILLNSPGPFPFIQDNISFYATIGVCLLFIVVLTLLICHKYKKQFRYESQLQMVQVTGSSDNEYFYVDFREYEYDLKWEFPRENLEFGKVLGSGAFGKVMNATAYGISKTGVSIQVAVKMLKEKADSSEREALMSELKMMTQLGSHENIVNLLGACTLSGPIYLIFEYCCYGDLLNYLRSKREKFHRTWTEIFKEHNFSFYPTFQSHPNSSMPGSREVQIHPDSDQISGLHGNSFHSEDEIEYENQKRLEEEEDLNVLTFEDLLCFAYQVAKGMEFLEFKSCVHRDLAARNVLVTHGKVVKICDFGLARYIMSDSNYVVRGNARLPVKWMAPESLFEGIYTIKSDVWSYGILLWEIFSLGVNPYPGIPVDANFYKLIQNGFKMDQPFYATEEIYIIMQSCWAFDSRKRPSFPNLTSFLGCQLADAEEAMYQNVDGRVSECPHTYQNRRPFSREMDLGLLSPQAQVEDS
Summary of the method: as §1

[3] = target: T2, kinases (Homo sapiens, UniProt P36888, R834Q)
T2 construct: purchased Eurofins/DiscoveRx; host or cells: E. coli BL21-derived host (T7 phage display) for most kinases; HEK-293 for the rest
T2 sequence (P36888 27-993 R834Q): T1 sequence (P36888 27-993 D835Y) with R808Q, Y809D
Summary of the method: as §1

[4] = target: T3, kinases (Homo sapiens, UniProt P07949, V804M)
T3 construct: purchased Eurofins/DiscoveRx; host or cells: E. coli BL21-derived host (T7 phage display) for most kinases; HEK-293 for the rest
Summary of the method: as §1

[5] = target: T4, kinases (Homo sapiens, UniProt P00533, DEL746-750)
T4 construct: purchased Eurofins/DiscoveRx; host or cells: E. coli BL21-derived host (T7 phage display) for most kinases; HEK-293 for the rest
Summary of the method: as §1

[6] = target EGFR(L747-E749del, A750P)
[7] = target EGFR(L747-S752del, P753S)
[8] = target EGFR(L747-T751del, Sins)

T3 sequence (P07949 29-1114 V804M): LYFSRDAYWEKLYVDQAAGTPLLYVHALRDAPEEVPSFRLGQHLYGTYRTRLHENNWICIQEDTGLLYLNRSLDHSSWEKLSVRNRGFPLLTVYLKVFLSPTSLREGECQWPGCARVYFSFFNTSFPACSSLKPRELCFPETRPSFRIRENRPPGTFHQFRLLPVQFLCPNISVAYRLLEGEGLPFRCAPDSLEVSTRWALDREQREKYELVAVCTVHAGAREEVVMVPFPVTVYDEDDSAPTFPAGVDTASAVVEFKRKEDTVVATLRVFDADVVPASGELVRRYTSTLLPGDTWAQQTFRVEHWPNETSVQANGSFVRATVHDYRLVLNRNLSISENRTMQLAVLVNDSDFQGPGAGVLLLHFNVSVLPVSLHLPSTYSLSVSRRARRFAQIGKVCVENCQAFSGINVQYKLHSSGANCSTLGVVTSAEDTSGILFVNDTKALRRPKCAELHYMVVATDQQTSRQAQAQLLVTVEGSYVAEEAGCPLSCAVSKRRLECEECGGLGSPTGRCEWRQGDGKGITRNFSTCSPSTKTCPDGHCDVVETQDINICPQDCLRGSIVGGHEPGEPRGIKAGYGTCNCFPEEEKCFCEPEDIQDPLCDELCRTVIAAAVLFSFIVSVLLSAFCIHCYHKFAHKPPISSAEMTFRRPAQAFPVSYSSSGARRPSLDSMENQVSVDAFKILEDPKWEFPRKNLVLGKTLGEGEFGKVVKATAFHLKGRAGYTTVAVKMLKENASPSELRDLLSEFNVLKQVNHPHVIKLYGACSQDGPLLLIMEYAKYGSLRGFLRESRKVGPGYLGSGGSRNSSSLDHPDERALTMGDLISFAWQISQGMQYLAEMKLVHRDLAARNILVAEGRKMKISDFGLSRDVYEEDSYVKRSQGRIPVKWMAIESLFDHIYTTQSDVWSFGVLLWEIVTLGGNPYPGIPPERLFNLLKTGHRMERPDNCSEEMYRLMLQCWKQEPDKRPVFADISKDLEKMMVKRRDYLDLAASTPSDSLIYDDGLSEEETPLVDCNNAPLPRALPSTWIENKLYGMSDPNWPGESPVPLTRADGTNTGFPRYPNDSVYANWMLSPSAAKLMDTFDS

SMILES | % Ctrl, EGFR(L747-E749del, A750P) ([1]; EGFR(L747-E749del, A750P)) [% Ctrl] | % Ctrl, EGFR(L747-S752del, P753S) ([1]; EGFR(L747-S752del, P753S)) [% Ctrl] | % Ctrl, EGFR(L747-T751del, Sins) ([1]; EGFR(L747-T751del, Sins)) [% Ctrl] | % Ctrl, FLT3(ITD) ([1]; FLT3(ITD)) [% Ctrl] | % Ctrl, FLT3(ITD, D835V) ([1]; FLT3(ITD, D835V)) [% Ctrl] | % Ctrl, FLT3(ITD, F691L) ([1]; FLT3(ITD, F691L)) [% Ctrl] | % Ctrl, FLT3(D835Y) ([2]; FLT3(D835Y)) [% Ctrl] | % Ctrl, FLT3(R834Q) ([3]; FLT3(R834Q)) [% Ctrl] | % Ctrl, RET(V804M) ([4]; RET(V804M)) [% Ctrl] | % Ctrl, EGFR(E746-A750del) ([5]; EGFR(E746-A750del)) [% Ctrl] | % Ctrl, EGFR(L747-E749del, A750P) [1, 6] [% Ctrl] | % Ctrl, EGFR(L747-S752del, P753S) [1, 7] [% Ctrl] | % Ctrl, EGFR(L747-T751del, Sins) [1, 8] [% Ctrl] | % Ctrl, FLT3(ITD) ([1]; target FLT3(ITD)) [% Ctrl] | % Ctrl, FLT3(ITD, D835V) ([1]; target FLT3(ITD, D835V)) [% Ctrl] | % Ctrl, FLT3(ITD, F691L) ([1]; target FLT3(ITD, F691L)) [% Ctrl] | % Ctrl, FLT3(D835Y) ([2]; target FLT3(D835Y)) [% Ctrl] | % Ctrl, FLT3(R834Q) ([3]; target FLT3(R834Q)) [% Ctrl] | % Ctrl, RET(V804M) ([4]; target RET(V804M)) [% Ctrl] | % Ctrl, EGFR(E746-A750del) ([5]; target EGFR(E746-A750del)) [% Ctrl]
Cc1cc2c([nH]1)/C=C1\C(=O)Nc3cc(Cl)c(cc31)OCCO[C@@H](C(=O)NC1CNC1)CN(C)C2=O [Ex. 133, [7R,16a(17)Z]-N-(azetidin-3-yl)-19-chloro-2,5-dimethyl-4,16-dioxo-4,5,6,7,9,10,15,16-octahydro-1H-12,14-(ethanediylidene)dipyrrolo[3,2-i:3′,4′-l][1,4,7]dioxazacyclopentadecine-7-carboxamide] | 100 | 100 | 100 | 26 | 2.8 | 5.6 | 3.1 | 49 | 69 | 100 |  |  |  |  |  |  |  |  |  | 
Cc1cc2c([nH]1)/C=C1\C(=O)Nc3cc(Cl)c(cc31)OCCO[C@@H](C(=O)NC1CCNCC1)CN(C)C2=O [Ex. 134, [7R,16a(17)Z]-19-chloro-2,5-dimethyl-4,16-dioxo-N-(piperidin-4-yl)-4,5,6,7,9,10,15,16-octahydro-1H-12,14-(ethaneidylidene)dipyrrolo[3,2-i:3′,4′-l][1,4,7]dioxazacyclopentadecine-7-carboxamide] | 83 | 87 | 99 | 35 | 3.2 | 6.1 | 10 | 59 | 81 | 89 |  |  |  |  |  |  |  |  |  | 
Cc1cc2c([nH]1)/C=C1\C(=O)Nc3cnc(cc31)-c1cnn(C)c1COCCNC2=O [Ex.123, [3a(4)Z]-6,14-dimethyl-10,11,13,14-tetrahydro-2H-17,1-(azenometheno)pyrazolo[4,3-m]dipyrrolo[3,2-f:3′,4′-i][1,4]oxazacyclopentadecine-3,8(5H,9H)-dione] | 9 | 100 | 74 | 93 | 100 | 39 | 72 | 100 | 99 | 100 |  |  |  |  |  |  |  |  |  | 
CN1CCSCCOc2cc3c(cc2Cl)NC(=O)/C3=C\c2[nH]ccc2C1=O [Ex. 153] |  |  |  |  |  |  |  |  |  |  | 85 | 57 | 38 | 0.5 | 0.5 | 0.5 | 1.7 | 19 | 41 | 56
Cc1cc2c([nH]1)/C=C1\C(=O)Nc3ccc(cc31)-c1cnn(C)c1CN(C)CCN(C)C2=O [Ex. 126, [3a(4)Z]-6,9,12,14-tetramethyl-9,10,11,12,13,14-hexahydro-1,17-(ethanediylidene)pyrazolo[4,3-m]dipyrrolo[3,2-f:3′,4′-i][1,4]diazacyclopentadecine-3,8(2H,5H)-dione] | 1.8 | 14 | 27 | 0.4 | 0 | 2.5 | 1.4 | 0 | 0 | 3.9 |  |  |  |  |  |  |  |  |  | 
CNC(=O)[C@H]1CN(C)C(=O)c2cc(C)[nH]c2/C=C2\C(=O)Nc3cc(Cl)c(cc32)OCCO1 [Ex. 135, [7R,16a(17)Z]-19-chloro-N,2,5-trimethyl-4,16-dioxo-4,5,6,7,9,10,15,16-octahydro-1H-12,14-(ethanediylidene)dipyrrolo[3,2-i:3′,4′-l][1,4,7]dioxazacyclopentadecine-7-carboxamide] | 82 | 80 | 98 | 52 | 11 | 25 | 13 | 63 | 77 | 99 |  |  |  |  |  |  |  |  |  | 
Cc1cc2c([nH]1)/C=C1\C(=O)Nc3cc(Cl)c(cc31)OCCO[C@@H](C(=O)N[C@@H]1CCNC1)CN(C)C2=O [Ex. 136, [7R,16a(17)Z]-19-chloro-2,5-dimethyl-4,16-dioxo-N-[(3R)-pyrrolidin-3-yl]-4,5,6,7,9,10,15,16-octahydro-1H-12,14-(ethanediylidene)dipyrrolo[3,2-i:3′,4′-l][1,4,7]dioxazacyclopentadecine-7-carboxamide] | 80 | 82 | 94 | 23 | 2.8 | 5.7 | 2.6 | 50 | 64 | 76 |  |  |  |  |  |  |  |  |  | 
Cc1nn(C)c2c1-c1ccc3c(c1)/C(=C/c1[nH]ccc1C(=O)N(C)CCCO2)C(=O)N3 [Ex. 150, [3a(4)Z]-9,14,16-trimethyl-10,11,13,14-tetrahydro-2H-1,17-(ethanediylidene)pyrazolo[4,3-m]dipyrrolo[3,2-f:3′,4′-i][1,4]oxazacyclopentadecine-3,8(5H,9H)-dione] |  |  |  |  |  |  |  |  |  |  | 94 | 100 | 94 | 72 | 35 | 59 | 67 | 69 | 68 | 98

Reference: patent US20230257396A1, “MACROCYCLES AND THEIR USE” (BLOSSOMHILL THERAPEUTICS, INC., priority 2020, published 2023)
